Measured values taken from US20230270870A1, “DOSAGE OF AN ANTIBODY-DRUG CONJUGATE” (DAIICHI SANKYO COMPANY, LIMITED, priority 2019, published 2023).
Like-named read-outs stand apart in the source and are kept apart here.

Experiments:
[1] = Phase 1 clinical study: pharmacokinetics; type: in vivo; settings: human, plasma, intravenous
Experimental: Preliminary single- and multiple-dose PK were evaluated using noncompartmental analysis in 61 subjects who received DS-1062a (0.27 mg/kg to 10 mg/kg).

topoisomerase I = biological target: T1, topoisomerase I (Homo sapiens, UniProt P11387); settings: cited from earlier work
T1 sequence (P11387 1-765): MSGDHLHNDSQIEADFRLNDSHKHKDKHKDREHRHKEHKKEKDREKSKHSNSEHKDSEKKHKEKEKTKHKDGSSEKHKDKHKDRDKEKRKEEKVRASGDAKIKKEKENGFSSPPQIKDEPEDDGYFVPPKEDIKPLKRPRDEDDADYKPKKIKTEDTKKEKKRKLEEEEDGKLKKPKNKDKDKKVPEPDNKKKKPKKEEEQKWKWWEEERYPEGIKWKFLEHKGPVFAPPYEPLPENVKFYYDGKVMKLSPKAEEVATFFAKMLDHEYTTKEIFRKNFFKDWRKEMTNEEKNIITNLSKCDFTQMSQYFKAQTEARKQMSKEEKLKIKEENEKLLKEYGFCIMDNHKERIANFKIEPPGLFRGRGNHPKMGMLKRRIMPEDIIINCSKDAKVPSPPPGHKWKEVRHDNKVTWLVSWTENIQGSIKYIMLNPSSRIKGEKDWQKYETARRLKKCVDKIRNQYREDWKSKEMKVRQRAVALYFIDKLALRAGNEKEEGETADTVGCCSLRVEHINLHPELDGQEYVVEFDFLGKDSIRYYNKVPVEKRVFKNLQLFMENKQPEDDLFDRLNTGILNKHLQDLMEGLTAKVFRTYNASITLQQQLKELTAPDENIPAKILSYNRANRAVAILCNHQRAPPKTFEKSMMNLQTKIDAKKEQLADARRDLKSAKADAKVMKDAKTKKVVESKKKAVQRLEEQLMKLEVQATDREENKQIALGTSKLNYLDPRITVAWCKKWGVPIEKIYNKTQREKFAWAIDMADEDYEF

NSCLC [2] = settings: NSCLC progressed during or after platinum-based doublet chemotherapy, N=290; cited from earlier work
NSCLC [3] = settings: phase 2, subjects who received standard of care; cited from earlier work

CC[C@@]1(O)C(=O)OCc2c1cc1n(c2=O)Cc2c-1nc1cc(F)c(C)c3c1c2[C@@H](NC(=O)CO)CC3 [Compound 1, HO—CH2—C(═O)—(NH—DX)]
exposure of released drug compared with DS-1062a [1]: lower than that of DS-1062a | topoisomerase I inhibitory effect (topoisomerase I): topoisomerase I inhibitory effect

CC(=O)O[C@@]12CO[C@@H]1C[C@H](O)[C@@]1(C)C(=O)[C@H](O)C3=C(C)[C@@H](OC(=O)[C@H](O)[C@@H](NC(=O)OC(C)(C)C)c4ccccc4)C[C@@](O)([C@@H](OC(=O)c4ccccc4)[C@H]21)C3(C)C [Docetaxel monotherapy, Docetaxel]
DCR (NSCLC [2]): 54.0% (158/290) (not provided) | ORR (NSCLC [2]): 12.0% (36/290) (9.0% to 17.0%)

Sactizumab govitecan
ORR (NSCLC [3]): 19%
